Results published in US10351523B2, “UV-absorbing compounds with at least one reactive hydrogen” (ISP INVESTMENTS LLC, priority 2013, dated 2019).

Experiment: Water solubility of the isolated powder (observation after work-up)
Type: physicochemical
Settings: isolated lemon-yellow powder
Experimental: (§1) To a premixed solution of 6.0 g ethylene diamine in 30 ml ethanol was added 30.8 g of 5-benzoyl-4-hydroxy-2-methoxy benzenesulfonic acid and stirred well until a solution was formed. The mixture was heated to 130° C. for 16 hours and then cooled to 70° C. The ethanol residue was flashed off in a vacuum oven at 70° C.
as §1, with “11.6” for “6.0”, “hexamethylene” for “ethylene”, “40 g” for “30 ml”
An amount of 7.4 g propylene diamine, 30.8 g of 5-benzoyl-4-hydroxy-2-methoxy benzenesulfonic acid, and 30 ml of 1:1 ethanol-water mixture was stirred well until a clear solution was obtained. […] The ethanol residue was flashed off in a vacuum oven at 70° C.

Row | Substance | solubility in water
1 | 2-hydroxy-4-methoxy-5-(N-6-aminohexyl) sulfonamido-4′-methylbenzophenone [Example 4] | insoluble in water
2 | 2-hydroxy-4-methoxy-5-(N-3-aminopropyl)sulfonamido-4′-methylbenzophenone [Example 5] | insoluble in water
